# Biological target: rat α6/α3β2β3 nAChR (Rattus norvegicus, UniProt P04757+P12390+P43143)
# Type: cell-based
# Sequence of rat α6/α3β2β3 nAChR (P04757 whole entry, looked up): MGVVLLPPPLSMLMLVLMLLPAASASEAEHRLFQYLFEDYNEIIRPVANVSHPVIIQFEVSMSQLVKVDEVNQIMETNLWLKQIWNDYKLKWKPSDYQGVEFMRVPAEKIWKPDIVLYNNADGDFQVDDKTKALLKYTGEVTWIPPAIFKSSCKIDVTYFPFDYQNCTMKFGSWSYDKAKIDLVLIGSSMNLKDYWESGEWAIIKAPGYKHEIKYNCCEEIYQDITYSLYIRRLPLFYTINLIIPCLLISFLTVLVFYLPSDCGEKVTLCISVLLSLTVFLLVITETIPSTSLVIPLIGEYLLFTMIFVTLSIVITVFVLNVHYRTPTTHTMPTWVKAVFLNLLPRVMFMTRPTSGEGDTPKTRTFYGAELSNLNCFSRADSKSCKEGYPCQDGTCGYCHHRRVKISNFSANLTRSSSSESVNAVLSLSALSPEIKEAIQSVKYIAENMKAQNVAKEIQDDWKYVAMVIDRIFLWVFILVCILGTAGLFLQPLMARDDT
# Sequence of rat α6/α3β2β3 nAChR (P12390 whole entry, looked up): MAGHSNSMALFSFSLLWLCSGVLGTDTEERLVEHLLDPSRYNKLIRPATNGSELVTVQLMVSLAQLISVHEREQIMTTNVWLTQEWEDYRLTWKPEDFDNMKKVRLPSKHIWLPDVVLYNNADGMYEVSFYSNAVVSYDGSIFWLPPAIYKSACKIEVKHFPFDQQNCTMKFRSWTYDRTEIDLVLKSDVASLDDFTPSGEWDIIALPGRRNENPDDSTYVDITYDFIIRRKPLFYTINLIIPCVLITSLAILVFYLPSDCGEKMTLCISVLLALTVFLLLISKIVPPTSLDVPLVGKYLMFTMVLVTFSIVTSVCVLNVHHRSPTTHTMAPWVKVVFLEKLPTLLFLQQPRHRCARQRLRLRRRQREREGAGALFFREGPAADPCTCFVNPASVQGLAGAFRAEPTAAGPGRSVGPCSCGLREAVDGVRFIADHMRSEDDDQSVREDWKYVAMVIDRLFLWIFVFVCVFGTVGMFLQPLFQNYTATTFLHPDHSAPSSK
# Sequence of rat α6/α3β2β3 nAChR (P43143 whole entry, looked up): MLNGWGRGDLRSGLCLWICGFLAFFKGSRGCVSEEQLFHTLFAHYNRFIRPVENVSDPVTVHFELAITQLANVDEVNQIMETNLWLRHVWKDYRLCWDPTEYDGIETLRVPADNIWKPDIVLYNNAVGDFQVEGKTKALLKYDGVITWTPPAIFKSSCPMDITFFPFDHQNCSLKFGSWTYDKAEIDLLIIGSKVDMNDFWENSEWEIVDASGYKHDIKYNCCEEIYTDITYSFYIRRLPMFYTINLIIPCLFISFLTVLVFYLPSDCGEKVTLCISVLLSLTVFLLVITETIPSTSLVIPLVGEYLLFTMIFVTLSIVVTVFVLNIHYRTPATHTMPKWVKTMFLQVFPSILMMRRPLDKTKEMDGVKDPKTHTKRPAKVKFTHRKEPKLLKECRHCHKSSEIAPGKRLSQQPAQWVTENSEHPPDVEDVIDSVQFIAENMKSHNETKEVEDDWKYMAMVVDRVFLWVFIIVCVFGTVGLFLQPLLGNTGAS
substance,measurement,value
α-Conotoxin TxIB,inhibition on α6/α3β2β3 nAChR,about 88%
